In PMC3474771, “Evaluation of 14 Organic Solvents and Carriers for Screening Applications in Zebrafish Embryos and Larvae” (PLoS ONE, 2012):
Read-outs that look alike come from different tables or passages of the source.

Tested on: zebrafish embryos and larvae
Conditions: for Maximum-tolerated concentration (MTC): highest concentration with no phenotypic abnormalities, followed to 9 dpf; for Phenotypic effects above MTC after 24 hours (average penetrance at least 50%): at the concentration in parentheses; for MTC / tolerated concentration: over all or most developmental stages analyzed, 24-hour exposure
Method: Zebrafish embryos of the AB wild-type strain (originally obtained from the Zebrafish International Resource Center, Eugene, Oregon, USA) were raised at 28°C. Zebrafish husbandry, embryo collection, and embryo and larva maintenance were performed as described, [21]. Toxicity assays were standardly performed in 24-well microtiter plates (wrapped with Parafilm to limit solvent evaporation) using 10 embryos per well in 1 ml of 0.3× Danieau's medium (17 mM NaCl, 2 mM KCl, 0.12 mM MgSO4, 1.8 mM Ca(NO3)2 and 1.5 mM HEPES, pH 7.6). Each experiment was repeated 3 times for a total of 30 embryos or larvae analyzed per solvent per developmental staged tested. Data were only recorded for experiments in which the percentage of normal embryos or larvae in the control group was at least 90%. […] In determining the maximum tolerated concentration (MTC) for each solvent and carrier, all post-exposure embryos and larvae were allowed to develop in larva medium to 9 dpf, so as to detect any deleterious effects appearing after this 24-hour window. Solvents and carriers were obtained from the following suppliers: acetone (Chemlab, Zedelgem, Belgium), acetonitrile (Acros Organics, Geel, Belgium), albumin (BSA, Sigma-Aldrich, Bornem, Belgium), butanone (Riedel-de Haën, Seelze, Germany), cyclodextrin (2- hydroxypropyl-beta-cyclodextrin, Sigma-Aldrich), dimethyl formamide (Acros), DMSO (Agros), ethanol (Fisher Scientific, Doornik, Belgium), glycerol (Acros), isopropanol (Chemlab), methanol (Chemlab), polyethylene glycol-400 (Fluka, Bornem, Belgium), propylene glycol (Certa, Eigenbrakel, Belgium), solketal (Merck, Overijse, Belgium). Statistical analyses were done using chi-square in Microsoft Excel.
Twelve solvents and 2 carriers – chosen based solely on their potential utility for the solubilization and delivery of a structurally diverse range of small molecules – were analyzed for their effects on zebrafish embryos and larvae. The solvents included acetone, acetonitrile, butanone, dimethyl formamide, DMSO, ethanol, glycerol, isopropanol, methanol, polyethylene glycol (PEG-400), propylene glycol, and solketal, and the carriers included albumin (BSA) and cyclodextrin (2-hydroxypropyl-beta-cyclodextrin, or HPBCD). […] For this initial study, the effects of a 24-hour exposure to each solvent and carrier was analyzed using embryos and larvae at the following developmental stages: 2–4 cell, 4 hours-post fertilization (hpf), and 1, 2, 3, 4, and 7 days post-fertilization (dpf).

[1] = exposure for 24 hours beginning at 1 dpf
[2] = exposure for 24 hours beginning at 2 dpf
[3] = exposure for 24 hours beginning at 2–4 cell stage
[4] = exposure for 24 hours beginning at 3 dpf
[5] = exposure for 24 hours beginning at 4 dpf
[6] = exposure for 24 hours beginning at 4 hpf
[7] = exposure for 24 hours beginning at 5 dpf
[8] = exposure for 24 hours beginning at 7 dpf
[9] = 24 hours exposure from 2–4 cell stage

| Compound | Lowest concentration at which an average penetrance of at least 50% was observed for the phenotypic effects (24 hours exposure from 1 dpf) | Lowest concentration at which an average penetrance of at least 50% was observed for the phenotypic effects (24 hours exposure from 2 dpf) | Lowest concentration at which an average penetrance of at least 50% was observed for the phenotypic effects (24 hours exposure from 3 dpf) | Lowest concentration at which an average penetrance of at least 50% was observed for the phenotypic effects (24 hours exposure from 4 dpf) | Lowest concentration at which an average penetrance of at least 50% was observed for the phenotypic effects (24 hours exposure from 4 hpf) | Lowest concentration at which an average penetrance of at least 50% was observed for the phenotypic effects (24 hours exposure from 5 dpf) | Lowest concentration at which an average penetrance of at least 50% was observed for the phenotypic effects (24 hours exposure from 7 dpf) | Maximum-tolerated concentration (MTC) [1] | Maximum-tolerated concentration (MTC) [2] | Maximum-tolerated concentration (MTC) [3] | Maximum-tolerated concentration (MTC) [4] | Maximum-tolerated concentration (MTC) [5] | Maximum-tolerated concentration (MTC) [6] | Maximum-tolerated concentration (MTC) [7] | Maximum-tolerated concentration (MTC) [8] | Phenotypic effects above MTC after 24 hours (average penetrance at least 50%) (exposure from 1 dpf) | Phenotypic effects above MTC after 24 hours (average penetrance at least 50%) (exposure from 2 dpf) | Phenotypic effects above MTC after 24 hours (average penetrance at least 50%) (exposure from 3 dpf) | Phenotypic effects above MTC after 24 hours (average penetrance at least 50%) (exposure from 4 dpf) | Lowest concentration at which an average penetrance of at least 50% was observed for the phenotypic effects [9] | other results |
| --- | --- | --- | --- | --- | --- | --- | --- | --- | --- | --- | --- | --- | --- | --- | --- | --- | --- | --- | --- | --- | --- |
| CC1(C)OCC(CO)O1 (stereo not shown) [Solketal] | 1% | 1% | 1% | 0.5% | 1% | 0.5% | 0.5% | 0.5% | 0.5% | <0.5% | 0.5% | <0.5% | 0.5% | <0.5% | <0.5% | AP BH IC IM NB PE | AP BH IC PE | AH IC IM HJ PE | BC LP |  | Maximum-tolerated concentration (MTC) (exposure for 24 hours beginning at 2–4 cell stage, listed as solketal): < 0.5%; Phenotypic effects above MTC after 24 hours (average penetrance at least 50%) (exposure from 5 dpf): NB LP SB+; Phenotypic effects above MTC after 24 hours (average penetrance at least 50%) (exposure from 7 dpf): NB LP |
| CC(O)COC[C@H]1O[C@@H]2O[C@H]3[C@H](O)[C@@H](O)[C@@H](O[C@H]4[C@H](O)[C@@H](O)[C@@H](O[C@H]5[C@H](O)[C@@H](O)[C@@H](O[C@H]6[C@H](O)[C@@H](O)[C@@H](O[C@H]7[C@H](O)[C@@H](O)[C@@H](O[C@H]8[C@H](O)[C@@H](O)[C@@H](O[C@H]1[C@H](O)[C@H]2O)O[C@@H]8COCC(C)O)O[C@@H]7COCC(C)O)O[C@@H]6COCC(C)O)O[C@@H]5COCC(C)O)O[C@@H]4COCC(C)O)O[C@@H]3COCC(C)O (stereo partly drawn) [Cyclodextrin (HPBCD), 2-hydroxypropyl-beta-cyclodextrin] |  |  |  |  |  |  |  | 1% | 1.5% | 1% | 1.5% | 1% | 0.5% | 1.5% | 1% |  |  |  |  |  | MTC / tolerated concentration: 1% |
| CCC(C)=O [Butanone (MEK), 2-butanone] | 2% | 2.5% | 2% |  |  |  |  | 1% | 1.5% | 0.5% | 1.5% | 1.5% | 1% | <0.5% | 0.5% | IC MC PE | DD HJ | HJ SB |  |  | Maximum-tolerated concentration (MTC) (exposure for 24 hours beginning at 2–4 cell stage, listed as butanone): ≤ 0.5%; Maximum-tolerated concentration (MTC) (exposure for 24 hours beginning at 5 dpf, listed as butanone): ≤ 0.5%; Maximum-tolerated concentration (MTC) (exposure for 24 hours beginning at 7 dpf, listed as butanone): ≤ 0.5% |
| CN(C)C=O [Dimethyl formamide (DMF), Dimethyl formamide] | 0.5% | 1% | 1% | 1% | 1% | 1.5% | 0.5% | <0.5% | 0.5% | 0.5% | 0.5% | 0.5% | <0.5% | 0.5% | <0.5% | AP BH IC IM NB PE | AP HJ PE | HJ IC PE | AP LP | 1% | Phenotypic effects above MTC after 24 hours (average penetrance at least 50%) (exposure from 4 hpf): AP BC BS CF PE; Phenotypic effects above MTC after 24 hours (average penetrance at least 50%) (exposure from 5 dpf): IM LP PE SB; Phenotypic effects above MTC after 24 hours (average penetrance at least 50%) (exposure from 7 dpf): HO LP; MTC / tolerated concentration: ≤ 0.5% |
| OCC(O)CO [Glycerol] | 2% | 2% | 2% |  | 2% |  |  | 1.5% | 1.5% | 1.5% | 1.5% | 2% | 1.5% | >2.5% | >2.5% |  |  |  |  | 2.5% | Maximum-tolerated concentration (MTC) (exposure for 24 hours beginning at 5 dpf, listed as glycerol): ≥ 2.5%; Maximum-tolerated concentration (MTC) (exposure for 24 hours beginning at 7 dpf, listed as glycerol): ≥ 2.5% |
| CCO [Ethanol, ethanol] | 2% | 2% | 2% | 2% | 1.5% | 2.5% | 1.5% | 1% | 1.5% | 1% | 1% | 1.5% | 0.5% | 0.5% | 1% |  |  |  |  | 1.5% |  |
| Albumin (BSA): bovine serum albumin (BSA), carrier |  |  | 1.5% | 1.5% | 0.5% |  |  | <0.5% | 0.5% | <0.5% | 0.5% |  | <0.5% | ≥2.5% | ≥2.5% |  |  |  | IC PE | 0.5% | Delay in development relative to control (0.5% from 4-cell stage, embryos at 1 dpf, morphologically normal): up to 9 hours; Maximum-tolerated concentration (MTC) (exposure for 24 hours beginning at 5 dpf, listed as BSA): ≥ 2.5%; Maximum-tolerated concentration (MTC) (exposure for 24 hours beginning at 7 dpf, listed as BSA): ≥ 2.5% |
